Legend:
Assay type in all cases: physicochemical
[1] = Emulsion droplet size by dynamic light scattering (DLS); conditions: N=6, p=130 psi, φ=0.20
Protocol: The diameters of emulsion droplets were estimated by dynamic light scattering (DLS) with a Photocor-FC board and software. The samples were diluted to obtain an intensity reading of between 1×10^5 and 6×10^5. Each measurement was performed at a scattering angle of 90° for 500 seconds, with linear channel spacing and an adjustable baseline. The fitting procedure used was cumulant analysis with an adjustable baseline to fit the data and calculate average droplet radii.

[2] = Critical aggregation concentration by pyrene fluorescence; conditions: pyrene fluorescence at 20° C.
[3] = Emulsification activity, emulsion type and stability
Protocol: The freeze-dried K40rL10 copolypeptide was first dissolved in de-ionized water at the desired concentration. The range of block copolypeptide concentrations, C, varied from 1.0×10^−4 mM to 1.7 mM. Silicone oil (10 cSt, Gelest PDMS) was added to give the desired volume fraction φ of oil to the continuous phase (0.01≦φ≦0.8). A premix emulsion was prepared by applying shear using either a handheld homogenizer (IKA Ultra-Turrax T8 with the S8N-8G dispersing element) or a handheld ultrasonic homogenizer (Cole-Palmer 4710 Series Model ASI at an output of 35-40%). This premix emulsion was then passed through a M-110S Microfluidizer® Processor with a 75 μm stainless steel/ceramic interaction chamber and an input air pressure p=130 psi. The emulsion was collected at the product outlet of the microfluidic homogenizer, and then passed through the microfluidic homogenizer five more passes (N=6 total), which decreased the average droplet radius and increased the monodispersity of the sample. We have formed double emulsions of copolypeptide, water, and various oils other than 10 cSt and 100 cSt silicone oil, including soybean oil and methyl oleate.
Diblock copolypeptides were screened for emulsification activity by adding PDMS silicone oil to aqueous Kx(rac-L)y solutions (Table 1, FIGS. 2A-2B, 11A). […]

[4] = Oil/water interfacial tension, Du Nouy ring method; conditions: 10 cSt PDMS / 0.1 mM block copolypeptide solution, pull rate 0.01 mm/s, 25° C.
[5] = Emulsion droplet sizes from cryo-TEM (CTEM) images
Protocol: For certain applications, further size separation may be desired. For these applications, we could also use centrifugation to fractionate the emulsion and isolate emulsions of a desired size range. To accomplish such separation, a 1.5 mM K40rL20 emulsion (φ=0.2) that had been passed through the microfluidic homogenizer for six passes (N=6) was placed in a desktop centrifuge set to a low speed of 3,500 rpm (revolutions per minute) for 4 hours. Due to the differences in mass densities of the droplet structures with respect to the continuous liquid phase, the larger droplets rose to the top as a plug more rapidly and could be separated out easily from the extremely dilute suspension of smaller droplets below (i.e. the remnants). We were able to separate out larger droplets that had diameters greater than 300 nm. The remnant suspension had droplet diameters less than 300 nm, therefore, a higher speed centrifuge was needed to further fractionate the sizes of the droplets. The remnant suspension was placed in an ultracentrifuge and centrifuged […] at 20,000 rpm.
A 1.5 mM K40rL20 emulsion (prepared as above) was centrifuged in a 15 mL plastic centrifuge tube for 24 h at 3,500 rpm using an IEC HN-S tabletop centrifuge. A 0.5 mm plug formed, and was separated from the remnants. A plug was formed at the top of the tube (droplet sizes >300 nm, by cryo-TEM), due the different densities of silicone oil and water (0.973 g/mL for 10 cSt PDMS silicone oil vs. 1.0 g/mL for water). The plug was isolated from the rest of the sample, designated as primary remnants, and these primary remnants were further fractionated at 20,000 rpm for 4 hrs using a Beckman L8-55 ultracentrifuge. A plug formed on the top of the suspension (droplet sizes ranging from 30 nm to 200 nm, by cryo-TEM) along with droplets remaining in suspension as secondary remnants (droplet sizes ranging from 10 nm to 30 nm, by cryo-TEM).
Each emulsion sample was diluted tenfold with DI water prior to imaging. An aliquot of each sample (5 μL) was then placed on a carbon grid. The grid was loaded into a Vitrobot (FEI) automated vitrification device for automated sample blotting and vitrification in liquid ethane. The grid was stored under liquid nitrogen and then placed, using a cold stage, in a Phillips Tecnai F20 electron microscope with an accelerating voltage of 120 kV. Images were obtained on a Teitz SCX slow-scan CCD detector coupled to the Leginon software package.
PDMS silicone oil (10 cSt) was added to give the desired volume fraction A of oil to the continuous phase (0.05<φ<0.50). A microscale emulsion (i.e. “premix” emulsion) was prepared by either mixing for 1 minute using a handheld homogenizer (IKA Ultra-Turrax T8 with the S8N-8G dispersing element) or by mixing for 10 seconds using a handheld ultrasonic tip homogenizer (Cole-Parmer 4710 Series Model ASI at an output of 35-40%). This emulsion was then passed through a M-110S Microfluidizer® Processor with a 75 μm stainless steel/ceramic interaction chamber and an input air pressure p=130 psi. The emulsion was collected at the product outlet, and then passed through the microfluidic homogenizer repeatedly for a total of six passes (N=6), which decreased the average droplet radius (e.g. of the single droplets in a simple emulsion and of the outer and inner droplets in a double emulsion) and increased the monodispersity of the droplets in the emulsions. A similar protocol was used for emulsions generated using other block copolypeptide surfactants (Table 1. FIGS. 7A-7C). The ratio given by the inner droplet radius divided by the outer droplet radius (labeled as “I/O ratio”) was relatively uniform for different hydrophobic chain lengths at approximately 0.5 (Table 1, FIG. 7D). Other amphiphilic block copolypeptides, where either the lysine or leucine domains were substituted with different hydrophilic or hydrophobic residues, respectively, were also found to form double emulsions (FIGS. 8A-8D).

[6] = sample fractionated from larger droplets by centrifugation followed by ultracentrifugation

For “Poly(L-lysine-HBr)40-b-poly(rac-leucine)20 [K40(rac-L)20]”, the average droplet radius ([1]; copolypeptide concentration 0.1 mM) was “about 400 nm”, the average droplet radius ([1]; copolypeptide concentration 1.5 mM) was “about 160 nm” and the “CAC” value [2] was 970 nM. For the same substance, the “type of emulsion formed” value ([3]; PDMS silicone oil, microscopy / cryo-TEM) was “formation of double emulsions”, the “emulsification of other immiscible liquids” value ([3]; dodecane, soybean oil, methyl oleate, 1 mM in water) was “gave emulsions” and the “Interfacial Tension (dyne/cm)” value [4] was 25.3 dyne/cm. For the same substance, the “droplet diameters of remnant suspension after low speed centrifugation” value ([5]; 1.5 mM emulsion, 3,500 rpm) was “less than 300 nm”, the droplet diameters ([5]; after passage six times through microfluidic homogenizer) was “ten to a few hundred” and the “Inner/Outer Diameter Ratio” value ([5]; average of at least 50 droplets from CTEM, N=6, p=130 psi, C=1.0 mM, φ=0.20) was 0.57. The “Droplet Diameter (nm)” value ([5]; outer droplets, average of at least 50 droplets from CTEM, microfluidic homogenizer N=6, p=130 psi, C=1.0 mM, φ=0.20) was 120 nm, the “Droplet Diameter (nm)” value [5, 6] was 60 nm and the “Inner/Outer Diameter Ratio” value [5, 6] was 0.45. The “smallest double emulsion droplets, diameter” value ([5]; ultrasonic homogenization) was “ca. 400 nm”.
